Experimental data from ChEMBL document CHEMBL4392848, “Proline-based hydroxamates targeting the zinc-dependent deacetylase LpxC: Synthesis, antibacterial properties, and docking studies” (Bioorg Med Chem, 2019).
≈ marks a conversion by molar mass, not a printed value.

Assays:
[1] = system: Escherichia coli; assay: Antibacterial activity against Escherichia coli BL21(DE3) assessed as diameter of inhibition zone measured after overnight incubation by agar disc diffusion method; format: functional; note: test concentration or dose not given here
[2] = system: Klebsiella oxytoca; assay: Antibacterial activity against Klebsiella oxytoca assessed as diameter of inhibition zone measured after 24 hrs by agar disc diffusion method; format: functional; note: test concentration or dose not given here
[3] = system: Escherichia coli; assay: Antibacterial activity against Escherichia coli BL21(DE3) measured after 20 hrs by microdilution method; format: functional
[4] = system: Escherichia coli; assay: Antibacterial activity against Escherichia coli D22 measured after 20 hrs by microdilution method; format: functional; settings: D22, 20 h
[5] = system: Klebsiella pneumoniae; assay: Antibacterial activity against Klebsiella pneumoniae assessed as diameter of inhibition zone measured after 24 hrs by agar disc diffusion method; format: functional; note: test concentration or dose not given here
[6] = system: Enterobacter cloacae; assay: Antibacterial activity against Enterobacter cloacae assessed as diameter of inhibition zone measured after 24 hrs by agar disc diffusion method; format: functional; note: test concentration or dose not given here
[7] = system: Proteus mirabilis; assay: Antibacterial activity against Proteus mirabilis assessed as diameter of inhibition zone measured after 24 hrs by agar disc diffusion method; format: functional; note: test concentration or dose not given here
[8] = system: Citrobacter freundii; assay: Antibacterial activity against Citrobacter freundii assessed as diameter of inhibition zone measured after 24 hrs by agar disc diffusion method; format: functional; note: test concentration or dose not given here
[9] = system: Escherichia coli; assay: Antibacterial activity against Escherichia coli D22 assessed as diameter of inhibition zone measured after overnight incubation by agar disc diffusion method; format: functional; note: test concentration or dose not given here
[10] = system: Proteus vulgaris; assay: Antibacterial activity against Proteus vulgaris assessed as diameter of inhibition zone measured after 24 hrs by agar disc diffusion method; format: functional; note: test concentration or dose not given here
[11] = system: Klebsiella aerogenes; assay: Antibacterial activity against Enterobacter aerogenes assessed as diameter of inhibition zone measured after 24 hrs by agar disc diffusion method; format: functional; note: test concentration or dose not given here
[12] = system: Pseudomonas aeruginosa; assay: Antibacterial activity against Pseudomonas aeruginosa assessed as diameter of inhibition zone measured after 24 hrs by agar disc diffusion method; format: functional; note: test concentration or dose not given here
[13] = Inhibition of Escherichia coli LpxC C63A mutant using UDP-3-O-[(R)-3-hydroxymyristoyl]-N-acetylglucosamine as substrate measured after 30 mins by fluorescence based microplate assay

Structure (SMILES)	diameter of the inhibition zone (DIZ) [1] [mm]	diameter of the inhibition zone (DIZ) [2] [mm]	MIC [3] [µM]	MIC [4] [µM]	diameter of the inhibition zone (DIZ) [5] [mm]	diameter of the inhibition zone (DIZ) [6] [mm]	diameter of the inhibition zone (DIZ) [7] [mm]	diameter of the inhibition zone (DIZ) [8] [mm]	diameter of the inhibition zone (DIZ) [9] [mm]	diameter of the inhibition zone (DIZ) [10] [mm]	diameter of the inhibition zone (DIZ) [11] [mm]	diameter of the inhibition zone (DIZ) [12] [mm]	IC50 [13] [µM]	Ki [13] [µM]
N[C@H]1C[C@@H](C(=O)NO)N(C(=O)c2ccc(C#Cc3ccccc3)cc2)C1	7.5	7	> 256	128 (≈ 44.7 µg/mL)	7	7	8	7	12.3	<6	7	7		
O=C(NO)[C@@H]1C[C@@H](O)CN1C(=O)c1ccc(C#Cc2ccc(F)cc2)cc1	<6		> 256	256 (≈ 94.3 µg/mL)					10.7				> 200	> 27.6
CN(C)c1ccc(C#Cc2ccc(C(=O)N3C[C@@H](O)C[C@H]3C(=O)NO)cc2)cc1	<6	8	256 (≈ 101 µg/mL)	32 (≈ 12.6 µg/mL)	9	8	8	9	13	<6	9	<6	16.7	2.3
N[C@H]1C[C@@H](C(=O)NO)N(C(=O)c2ccc(C#Cc3ccc(CN4CCOCC4)cc3)cc2)C1	7.8	13	256 (≈ 115 µg/mL)	64 (≈ 28.7 µg/mL)	9	<6	7	8	20	<6	11	10		
O=C(NO)[C@@H]1C[C@H](O)[C@H](c2ccc(C#Cc3ccc(CN4CCOCC4)cc3)cc2)O1	<6		> 256	16 (≈ 6.76 µg/mL)					15.3				87	12
CC1(C)O[C@@H]2[C@H](O1)[C@H](c1ccc(C#Cc3ccc(CN4CCOCC4)cc3)cc1)O[C@@H]2C(=O)NO	<6		> 256	128 (≈ 61.3 µg/mL)					14.7				> 200	> 27.6
O=C(NO)[C@H]1O[C@@H](c2ccc(C#Cc3ccc(CN4CCOCC4)cc3)cc2)[C@@H](O)[C@H]1O	<6		> 256	16 (≈ 7.02 µg/mL)					13.2				> 200	> 27.6
O=C(NO)[C@@H]1C[C@H](F)CN1Cc1ccc(C#Cc2ccccc2)cc1	<6		> 256	128 (≈ 43.3 µg/mL)					10.7				> 200	> 27.6
O=C(NO)[C@@H]1C[C@@H](O)CN1C(=O)c1ccc(C#Cc2ccccc2)cc1	<6		> 256	128 (≈ 44.8 µg/mL)					14				103	14.2
COc1ccc(C#Cc2ccc(C(=O)N3C[C@@H](O)C[C@H]3C(=O)NO)cc2)cc1	<6	7	> 256	128 (≈ 48.7 µg/mL)	<6	8	<6	8	<6	9	<6	<6		
O=C(NO)[C@@H]1C[C@H](F)CN1C(=O)c1ccc(C#Cc2ccccc2)cc1	<6		> 256	128 (≈ 45.1 µg/mL)					13.3				65.9	9.1
Nc1ccc(C#Cc2ccc(C(=O)N3C[C@H](O)C[C@H]3C(=O)NO)cc2)cc1	<6	7	> 256	128 (≈ 46.8 µg/mL)	<6	<6	7	<6	12.3	<6	<6	<6		
Nc1ccc(C#Cc2ccc(C(=O)N3CCC[C@H]3C(=O)NO)cc2)cc1	7.5	7	> 256	128 (≈ 44.7 µg/mL)	<6	<6	<6	7	14.3	<6	<6	<6		
CN(C)c1ccc(C#Cc2ccc(C(=O)N3C[C@H](O)C[C@H]3C(=O)NO)cc2)cc1	<6	8	256 (≈ 101 µg/mL)	32 (≈ 12.6 µg/mL)	7	<6	8	8	14	<6	10	<6		
Nc1ccc(C#Cc2ccc(C(=O)N3C[C@@H](O)C[C@H]3C(=O)NO)cc2)cc1	<6	8	> 256	128 (≈ 46.8 µg/mL)	<6	<6	8	<6	13	<6	<6	<6		
COc1ccc(C#Cc2ccc(C(=O)N3C[C@H](O)C[C@H]3C(=O)NO)cc2)cc1	<6	7	> 256	64 (≈ 24.3 µg/mL)	<6	<6	7	7	9.7	8	<6	<6		
O=C(NO)[C@@H]1O[C@@H](c2ccc(C#Cc3ccc(CN4CCOCC4)cc3)cc2)[C@@H](O)[C@H]1O	<6		> 256	8 (≈ 3.51 µg/mL)					22.1				10	1.4
